Data on three molecules can be found in PMC7515912, “Structural insight into the binding of human galectins to corneal keratan sulfate, its desulfated form and related saccharides” (Scientific Reports, 2020).

Read-outs that look alike come from different tables or passages of the source.

The target of data set [1] is T1, Gal-7 (Homo sapiens, UniProt P47929).
T1 construct: made in house
In words: 1H-15N HSQC NMR titration of 15N-labeled Gal-7. In kind it is binding. On the procedure: (§1) Uniformly ^15N-labeled Gal-3 (or Gal-7) was dissolved at a concentration of 20 μM in 20 mM potassium phosphate buffer at pH 6.9, made up using a 95% H2O/ 5% D2O mixture. ^1H–^15N HSQC NMR experiments were used to investigate binding of KS or KSDS to Gal-3[39] and Gal-7[90]. NMR experiments were performed at 30 °C on Bruker AVANCE III 700 MHz or 850 MHz spectrometers equipped with cryogenically-cooled z-gradient triple resonance probes. Chemical shift perturbations were monitored, using the sequence-specific ^1H and ^15N resonances assignments for human Gal-3, Gal-3 CRD, and Gal-7. Chemical shifts were internally referenced to DSS (4,4-dimethyl-4-silapentane-1-sulfonic acid). Raw data were converted and processed by using NMRPipe[91] and were analyzed by using NMRview[92].
Chemical shifts, δ, were referenced to 4,4-dimethyl-4-silapentane-1-sulfonic acid, and chemical shift differences (∆δ) were calculated as [(∆^1H)^2 + (0.25∆^15N)^2 ]^1/2. Intensity changes (∆Intensity) were calculated as (1 − Inti/Into), where Into is the initial resonance intensity and Inti is the intensity upon addition of KS or KSDS or another saccharide. Using this equation, a value of 1 means that that resonance is no longer observable, and 0 means the absence of resonance broadening, with a negative value indicating increased resonance intensity. […]

Data set [2] deals with T2, Gal-3 FL (full-length human Gal-3, residues 1–250) (Homo sapiens, UniProt P17931).
T2 construct: Full-length human Gal-3 (residues 1–250); made in house
T2 sequence (P17931 whole entry, the tested form may be a part): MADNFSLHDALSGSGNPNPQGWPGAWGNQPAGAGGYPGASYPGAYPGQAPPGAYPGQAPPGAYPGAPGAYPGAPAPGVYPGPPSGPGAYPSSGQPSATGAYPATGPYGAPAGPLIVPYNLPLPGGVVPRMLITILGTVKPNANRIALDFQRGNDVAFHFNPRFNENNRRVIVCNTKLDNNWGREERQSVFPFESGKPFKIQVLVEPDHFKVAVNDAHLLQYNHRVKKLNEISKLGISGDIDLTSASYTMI
In words: 1H-15N HSQC NMR titration of 15N-labeled full-length Gal-3. In kind it is binding. On the procedure: as §1
(§2) Chemical shifts, δ, were referenced to 4,4-dimethyl-4-silapentane-1-sulfonic acid, and chemical shift differences (∆δ) were calculated as [(∆^1H)^2 + (0.25∆^15N)^2 ]^1/2. Intensity changes (∆Intensity) were calculated as (1 − Inti/Into), where Into is the initial resonance intensity and Inti is the intensity upon addition of KS or KSDS or another saccharide. Using this equation, a value of 1 means that that resonance is no longer observable, and 0 means the absence of resonance broadening, with a negative value indicating increased resonance intensity. In chemical shift or resonance broadening maps, the most perturbed resonances are defined as > 2SD above the average or > 1SD above the average. The 50% bound mark was taken from titration curves at 50% bound.

Data set [3] addresses T3, Gal-3 CRD (residues 108–250) (Homo sapiens, UniProt P17931).
T3 construct: its Gal-3 CRD (residues 108–250); made in house
Put plainly: 1H-15N HSQC NMR titration of 15N-labeled Gal-3 CRD. In kind it is binding. On the procedure: as §1, §2

Data set [4] in a line: PFG NMR self-diffusion of KS alone. In kind it is physicochemical. Particulars: KS 4 μM in the absence of Gal-3; 20 mM potassium phosphate in 2H2O, pD 6.7, 30 °C. As to the method:
(§3) For pulsed field gradient (PFG) NMR self-diffusion measurements, a solution was made up with KS (4 μM) in 20 mM potassium phosphate buffer with ^2H2O at pD 6.7 adjusted by addition of NaO^2H or ^2HCl. To this solution, ^15N/^13C-labeled Gal-3 (full-length and CRD) dissolved in the same buffer was added at increasing concentrations as molar ratios of [Gal-3]/[KS]. PFG NMR data were acquired at 30 ◦C on a Bruker AVANCE 700 spectrometer, essentially as previously described. For unrestricted diffusion of molecules in isotropic solutions, the PFG NMR signal amplitude, A, normalized to the signal in the absence of gradient pulses, is related to the diffusion coefficient D by Eq. (1):1 A=exp[-γ^2g^2Δ^2D(Δ-[…])]
(§4) where γ is the gyromagnetic ratio, g is the magnitude of the magnetic field gradient pulse, ∆ is the time between gradient pulses. Here, we set g = 1–75 G/cm, ∆ = 34.2 ms, with a longitudinal eddy-current delay of 100 ms. Each D value was determined from a series of 14 1D PFG NMR spectra (256 scans each) using different g values. To derive D values, the gradient-induced change in amplitude of KS resonances at 3.64 and 3.7 ppm was used. In this spectral region, KS resonance intensity was considerably greater than that from Gal-3. In order to decrease Gal-3 resonance intensity further, ^13CH and ^15NH resonances from labeled Gal-3 were not decoupled.

For data set [5], the target named is Gal-3 (full-length and CRD) (Homo sapiens, UniProt P17931). Put plainly: PFG NMR diffusion of KS as a function of Gal-3/KS molar ratio. In kind it is binding. On the procedure: as §3, §4
Chain of Gal-3 (full-length and CRD) (P17931 108-250 limits assumed): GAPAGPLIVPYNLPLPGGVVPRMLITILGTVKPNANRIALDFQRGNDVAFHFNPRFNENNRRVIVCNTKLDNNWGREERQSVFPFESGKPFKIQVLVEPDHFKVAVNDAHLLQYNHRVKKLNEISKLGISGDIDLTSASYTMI

T3 sequence (P17931 108-250): as the sequence (P17931 108-250 limits assumed) above
T1 sequence (P47929 whole entry): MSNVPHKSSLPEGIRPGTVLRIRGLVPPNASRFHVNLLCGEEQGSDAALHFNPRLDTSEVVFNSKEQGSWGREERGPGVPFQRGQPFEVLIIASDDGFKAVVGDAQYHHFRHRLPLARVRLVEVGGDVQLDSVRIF

In the case of `CC(=O)N[C@H]1[C@H](O[C@H]2[C@@H](O)[C@@H](CO)O[C@@H](O[C@H]3[C@H](O)[C@@H](O)C(O)O[C@@H]3CO)[C@@H]2O)O[C@H](CO)[C@@H](O)[C@@H]1O[C@@H]1O[C@H](CO)[C@H](O)[C@H](O)[C@H]1O` (some centres unmarked) [LNT, lacto-N-tetraose, reference compound], the Kd in data set [1] (fast exchange, from average ∆δ vs ligand concentration, Gal-7, pH 6.9, 30 °C, read-out: KD) is approximately 500 µM.
Turning to `CC(=O)N[C@H]1C(O)O[C@H](CO)[C@@H](O[C@@H]2O[C@H](CO)[C@H](O)[C@H](O)[C@H]2O)[C@@H]1O` (some centres unmarked) [LacNAc, N-acetyllactosamine, reference compound], the Kd in data set [2] (fast exchange, from chemical shifts vs ligand concentration, Gal-3 FL 20 μM, pH 6.9, 30 °C, read-out: KD) was determined as 190 µM; in data set [3] (fast exchange, from chemical shifts vs ligand concentration, Gal-3 CRD 20 μM, pH 6.9, 30 °C, read-out: KD), 380 µM.
keratan sulfate [KS]: the Kd is 34 µM in data set [2] (2 μM × 17 sites, assumes the same stoichiometry as KSDS, Gal-3 FL, read-out: site-average microscopic KD); approximately 2 µM in data set [2] (apparent affinity/avidity from average ∆δ vs ligand concentration, 20 μM Gal-3 FL, 20 mM KPhos, pH 6.9, 30 °C, read-out: 50% change in chemical shift / 50% lectin bound (ligand concentration)); 154 µM in data set [3] (7 μM × 22 sites, assumes the same stoichiometry as KSDS, Gal-3 CRD, read-out: site-average microscopic KD); approximately 7 µM in data set [3] (apparent affinity/avidity from average ∆δ vs ligand concentration, 20 μM Gal-3 CRD, 20 mM KPhos, pH 6.9, 30 °C, read-out: 50% change in chemical shift / 50% lectin bound (ligand concentration)); approximately 4.5 µM in data set [1] (binding avidity estimated from average ∆δ vs glycosaminoglycan concentration, 20 μM Gal-7, pH 6.9, 30 °C, read-out: 50% Gal-7 loaded with ligand (ligand concentration)). Further, the “diffusion coefficient D” value in data set [4] is 0.92 × 10^–6 cm^2/s^-1. For the same molecule, in data set [5] (D trend continues to Gal-3/KS molar ratio of ~6 to 8, both Gal-3 FL and CRD), the “binding stoichiometry, Gal-3 molecules per KS molecule” value is recorded as not above 8. For the same molecule, in data set [5] (upon addition of one mole equivalent of Gal-3), the “decrease of KS D value” is “about 40%”.
